Data set [1] relates to Influenza (INFL) B. Briefly: microbe, parasite or virus in culture. In kind it is cell-based. Conditions: read-out: Dir.Antiviral activity (EC50) INFL.B.
The test system of data set [2] is cells infected with HBV.
In data set [3] the test system is Parainfluenza (PARA) 3. Format: cell-based, Parainfluenza 3. Conditions: read-out: Dir.Antiviral activity (EC50) PARA 3.
Data set [4] concerns cells infected with Influenza B. Briefly: Cytotoxicity assay, influenza B test. In kind it is cell-based. Conditions: cells of the Influenza B test; read-out: Cytotoxicity (CC50) INFL.B. As for the experimental part: (§1) In vitro testing for direct antiviral activity of Levovirin™ and Ribavirin against influenza A and B, parainfluenza 1 and 2, and respiratory syncytial virus were performed as described in Huffinan, J. H. et al. Antiviral Chem. and Chemother. 1997, 8: 75-83 and Barnard, D. L. et al. Antiviral Chem. and Chemother 1997, 8: 223-233. Anti-human immunodeficiency virus activity was assessed by the National Cancer Institute using a procedure designed to detect agents acting at any stage of the virus reproductive cycle [Weislow, O. W. et al., J. Natl. Cancer Inst. 1989, 81: 577-586]. Anti-hepatitis B (HBV) activity was monitored by using an assay as described by Marion et al., Hepatology 1987, 7: 724-731. Anti-HIV activity and cytotoxicity for Ribavirin was determined from previous data [McCormick, J. B., Lancet, 1998, II: 1367-1369.

The test system of data set [5] is cells infected with Parainfluenza 3.
Data set [6] concerns SEB stimulated T cell expression of the TH1 cytokines IL-2, IFN-γ, and TNF-α. In kind it is cell-based, human.
The subject of data set [7] is Concanavalin A Induced Hepatitis. The data set can be described thus: Concanavalin A induced hepatitis, serum ALT. Conditions: BALB/c mice, single i.p. dose 20 μg (1 mg/kg) 1 hr prior to i.v. 0.3 mg Con A; serum after 24 hr; PBS control about 1900 U/ml.
Data set [8] deals with Parainfluenza (PARA) 1. In kind it is cell-based, Parainfluenza 1. Conditions: read-out: Dir.Antiviral activity (EC50) PARA 1.
The subject of data set [9] is cells infected with Influenza A. The data set can be described thus: Cytotoxicity assay, influenza A test. Format: cell-based. Conditions: cells of the Influenza A test; read-out: Cytotoxicity (CC50) INFL.A. On the procedure: as §1
A short description of data set [10]: Four-week oral toxicity in rats. Conditions: oral administration, 180 mg/kg over four weeks.
Data set [11] has as its system cells infected with HIV. Conditions: cells of the HIV test; Ribavirin value from previous data (McCormick, Lancet); read-out: Cytotoxicity (CC50) HIV; cited from earlier work.
Data set [12] deals with respiratory syncytial virus (RSV). Format: cell-based. Conditions: read-out: Dir.Antiviral activity (EC50) RSV.
Data set [13] deals with cells infected with RSV.
For data set [14], the system named is Influenza (INFL) A. Format: cell-based. Conditions: read-out: Dir.Antiviral activity (EC50) INFL.A.
Data set [15] relates to Hepatitis B (HBV). In kind it is cell-based. Conditions: read-out: Dir.Antiviral activity (EC50) HBV.
In data set [16] the test system is cells infected with Parainfluenza 1.
The conditions of data set [17]: rat, in vivo, po, 180 mg/kg.
Data set [18] is described as follows: Cytotoxicity assay, influenza B test. Conditions: cells infected with Influenza B (cell line not given); cells of the Influenza B test; read-out: Cytotoxicity (CC50) INFL.B. In kind it is cell-based. On the procedure: as §1
The nature of data set [19]: Cytotoxicity assay, influenza A test. In kind it is cell-based. Conditions: cells infected with Influenza A (cell line not given); cells of the Influenza A test; read-out: Cytotoxicity (CC50) INFL.A. On the procedure: as §1

Like-named read-outs stand apart in the source and are kept apart here.

The text below walks through data of patent US6518253B1, “Treatment of viral infections using the L-isomer of ribavirin” (priority 1999, dated 2003).

For the molecule “1-(5-Deoxy-β-D-ribo-furanosyl)-1,2,4-triazole-3-carboxamide [Ribavirin]”, the EC50 was 1.9 µM in data set [1] (Influenza B); 4 µM in data set [3]; 40 µM in [8]; 5 µM in data set [12]; 6.1 µM in [14]; above 100 µM in [15]. Also, the CC50 is 53 µM in data set [2]; above 100 µM in [4]; 480 µM in data set [5]; 56 µM in data set [9]; above 40 µM in data set [11]; 100 µM in [13]. In [16], the CC50 is above 1000 µM. Also, the “IFN-γ, mean percentage of activated control” value in data set [6] is 131 ± 6 percentage of activated control. Besides, the “IL-2, mean percentage of activated control” value in data set [6] is reported as 143 ± 18 percentage of activated control. The “TNF-α, mean percentage of activated control” value in [6] is recorded as 124 ± 4 percentage of activated control. The “Con A induced serum ALT level” value in [7] is listed as 969 U/ml. The “Clinical pathology (hemolytic anemia, leukopenia)” value in data set [10] is “produced significant hemolytic anemia and leukopenia”.
On to `NC(=O)c1ncn([C@H]2O[C@@H](CO)[C@H](O)[C@@H]2O)n1` [Levovirin™, 1-(β-L-ribofuranosyl)-1,2,4-triazole-3-carboxamide], for which the EC50 in data set [1] (Influenza B virus) was above 200 µM. Also, the “Clinical pathology (hemolytic anemia, leukopenia)” value in data set [17] is listed as “did not produce any observable clinical pathology”. Also, in [18], the CC50 was above 200 µM. In addition, in data set [6], the “IFN-γ, mean percentage of activated control” value is recorded as 122 ± 3 percentage of activated control; the “IL-2, mean percentage of activated control” value is listed as 131 ± 12 percentage of activated control; the “TNF-α, mean percentage of activated control” value is 144 ± 7 percentage of activated control. In addition, the “Con A induced serum ALT level” value in [7] stood at 954 U/ml. In addition, the 50% cytotoxic concentration (CC50) in data set [19] was above 200 µM.

A word on the EC50: it is the midpoint of the concentration-response curve. Usually CC50 stands for the concentration giving 50% cytotoxicity.
